Columns and labels:
Lactoylglutathione lyase = Lactoylglutathione lyase (Homo sapiens, UniProt Q04760); test: Inhibitory constant against Glyoxalase I
Homo sapiens = species: Homo sapiens; test: Effect of COTC on GSH level in human pancreatic adenocarcinoma cell was determined at 30 ug/mL of COTC; format: functional

Sequence of Lactoylglutathione lyase (Q04760 whole entry): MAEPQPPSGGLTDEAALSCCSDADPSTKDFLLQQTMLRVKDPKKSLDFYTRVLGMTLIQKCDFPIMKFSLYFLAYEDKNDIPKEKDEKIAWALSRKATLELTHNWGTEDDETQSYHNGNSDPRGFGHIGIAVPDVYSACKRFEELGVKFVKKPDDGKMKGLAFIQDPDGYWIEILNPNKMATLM

SMILES | Ki (Lactoylglutathione lyase) [µM] | Decrease (Homo sapiens) [%]
NC(CCC(=O)NC(CSCC1=C[C@@H](O)[C@@H](O)[C@@H](O)C1=O)C(=O)NCC(=O)O)C(=O)O (some centres not stated) | 183 | –
C/C=C/C(=O)OCC1=C[C@@H](O)[C@@H](O)[C@@H](O)C1=O | – | 40

From ChEMBL document CHEMBL1144323, “Reversal of anticancer drug resistance by COTC based on intracellular glutathione and glyoxalase I” (Bioorg Med Chem Lett, 2005)
